From patent US7476673B2, “Disubstituted chalcone oximes as selective agonists of RARγ retinoid receptors” (Allergan, Inc., priority 2003, dated 2009)

What was measured:
[1] = system: RARγ; test: chimeric receptor transactivation assay, RARγ; type: cell-based; conditions: judged from Table 1 data, versus RARα and RARβ
Method: (§1) The compounds of the invention were tested in certain assays for activity as agonists of RAR and RXR retinoid receptors. Specifically, one such assay is a chimeric receptor transactivation assay which tests for agonist-like activity in the RARα, RARβ and RARγ receptor subtypes, and which is based on work published by Feigner P. L. and Holm M. (1989) Focus, 112 is described in detail in U.S. Pat. No. 5,455,265. The specification of U.S. Pat. No. 5,455,265 is hereby expressly incorporated by reference.
(§2) A holoreceptor transactivation assay and a ligand binding assay which measure the antagonist/agonist like activity of the compounds of the invention, or their ability to bind to the several retinoid receptor subtypes, respectively, are described in published PCT Application No. WO WO93/11755 (particularly on pages 30-33 and 37-41) published on Jun. 24, 1993, the specification of which is also incorporated herein by reference. A detailed experimental procedure for holoreceptor transactivations has been described by Heyman et al. Cell 68, 397-406, (1992); Allegretto et al. J. Biol. Chem. 268, 26625-26633, and Mangelsdorf et al. The Retinoids: Biology, Chemistry and Medicine, pp 319-349, Raven Press Ltd., New York, which are expressly incorporated herein by reference. The results obtained in this assay are expressed in EC50 numbers, as they are also in the chimeric receptor transactivation assay. The results of the ligand binding assay are expressed in Ki numbers. (See Cheng et al. Biochemical Pharmacology Vol. 22 pp 3099-3108, expressly incorporated herein by reference.)
(§3) Efficacy in a transactivation assay is expressed as a percentage of the maximum potency attained by the compound compared to a standard which, in this case, is the compound 4-[(1E)-2-(5,6,7,8-tetrahydro-5,5,8,8-tetramethyl-2-naphthalenyl)-1-propenyl]-benzoic acid. (TTNPB) This standard compound is described in PCT Publication WO 2002077169 A2.
(§4) Table 1 discloses the activity of certain exemplary compounds of the invention in the above-described chimeric RAR receptor transactivation and binding assays.

[2] = molecular target: T1, RARβ (Homo sapiens, UniProt P10826); test: chimeric receptor transactivation assay, RARβ; type: cell-based
T1 sequence (P10826 183-455 limits assumed): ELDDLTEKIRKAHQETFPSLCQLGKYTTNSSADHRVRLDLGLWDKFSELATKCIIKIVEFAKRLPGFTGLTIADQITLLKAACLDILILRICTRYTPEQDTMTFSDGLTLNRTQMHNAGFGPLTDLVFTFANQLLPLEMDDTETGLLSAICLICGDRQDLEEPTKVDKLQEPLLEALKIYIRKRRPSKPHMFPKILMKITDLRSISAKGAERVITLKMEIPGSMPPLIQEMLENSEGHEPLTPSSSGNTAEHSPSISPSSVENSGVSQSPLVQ
Method: as §1, §2, §3, §4

[3] = molecular target: T2, RARβ (Homo sapiens, UniProt P10826); test: ligand binding assay, RARβ; conditions: results expressed in Ki numbers, read-out: RAR Binding β
T2 sequence (P10826 1-455): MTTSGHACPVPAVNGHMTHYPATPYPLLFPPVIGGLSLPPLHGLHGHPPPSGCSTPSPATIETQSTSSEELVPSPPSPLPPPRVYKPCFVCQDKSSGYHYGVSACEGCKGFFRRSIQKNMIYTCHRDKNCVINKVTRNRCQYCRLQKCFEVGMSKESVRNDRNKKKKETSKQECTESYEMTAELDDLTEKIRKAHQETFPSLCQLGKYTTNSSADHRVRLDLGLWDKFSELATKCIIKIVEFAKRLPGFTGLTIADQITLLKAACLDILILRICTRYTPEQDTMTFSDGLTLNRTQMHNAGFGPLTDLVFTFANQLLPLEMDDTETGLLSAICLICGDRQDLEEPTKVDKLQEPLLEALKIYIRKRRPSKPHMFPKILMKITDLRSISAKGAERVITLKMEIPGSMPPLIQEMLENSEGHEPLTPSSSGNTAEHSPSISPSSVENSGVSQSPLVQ
Description: as §2, §4

[4] = molecular target: T3, RARγ (Homo sapiens, UniProt P13631); test: chimeric receptor transactivation assay, RARγ; type: cell-based
T3 construct: % Efficiency γ; other: percentage of maximum compared to standard TTNPB
T3 sequence (P13631 185-454 limits assumed): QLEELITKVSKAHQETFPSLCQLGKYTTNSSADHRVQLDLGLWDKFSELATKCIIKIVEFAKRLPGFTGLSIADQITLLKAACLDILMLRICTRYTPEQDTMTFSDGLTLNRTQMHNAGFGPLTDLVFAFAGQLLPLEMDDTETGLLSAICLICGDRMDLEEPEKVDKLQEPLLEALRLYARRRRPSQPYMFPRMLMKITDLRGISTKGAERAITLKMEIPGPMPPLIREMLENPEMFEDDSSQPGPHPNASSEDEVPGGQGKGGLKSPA
Method: as §1, §2, §3, §4

[5] = molecular target: T4, RARα (Homo sapiens, UniProt P10276); test: chimeric receptor transactivation assay, RARα; type: cell-based; conditions: chimeric receptor transactivation; read-out: RAR EC50 α
T4 sequence (P10276 183-417 limits assumed): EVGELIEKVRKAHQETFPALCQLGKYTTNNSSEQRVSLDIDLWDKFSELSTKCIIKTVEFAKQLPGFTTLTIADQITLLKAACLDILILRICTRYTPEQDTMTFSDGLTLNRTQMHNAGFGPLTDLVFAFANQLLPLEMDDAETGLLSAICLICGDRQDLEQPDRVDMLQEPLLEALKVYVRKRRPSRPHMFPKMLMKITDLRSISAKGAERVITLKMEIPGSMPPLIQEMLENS
Method: as §1, §2, §3, §4

[6] = molecular target: T5, RARγ (Homo sapiens, UniProt P13631); test: ligand binding assay, RARγ; conditions: results expressed in Ki numbers, read-out: RAR Binding γ
T5 sequence (P13631 1-454): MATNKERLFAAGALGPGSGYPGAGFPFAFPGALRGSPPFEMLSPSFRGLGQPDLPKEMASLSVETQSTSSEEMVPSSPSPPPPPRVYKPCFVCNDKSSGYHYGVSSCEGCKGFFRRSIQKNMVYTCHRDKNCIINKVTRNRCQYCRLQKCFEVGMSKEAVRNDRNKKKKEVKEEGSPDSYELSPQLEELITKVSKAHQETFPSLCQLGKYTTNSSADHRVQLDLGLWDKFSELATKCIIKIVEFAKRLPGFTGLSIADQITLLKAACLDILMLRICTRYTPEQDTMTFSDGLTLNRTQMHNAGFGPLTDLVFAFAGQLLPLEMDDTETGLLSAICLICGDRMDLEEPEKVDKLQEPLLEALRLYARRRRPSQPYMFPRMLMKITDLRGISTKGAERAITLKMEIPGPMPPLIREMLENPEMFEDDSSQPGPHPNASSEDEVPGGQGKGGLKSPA
Description: as §2, §4

[7] = molecular target: T6, RARα (Homo sapiens, UniProt P10276); test: ligand binding assay, RARα; conditions: results expressed in Ki numbers, read-out: RAR Binding α
T6 sequence (P10276 1-462): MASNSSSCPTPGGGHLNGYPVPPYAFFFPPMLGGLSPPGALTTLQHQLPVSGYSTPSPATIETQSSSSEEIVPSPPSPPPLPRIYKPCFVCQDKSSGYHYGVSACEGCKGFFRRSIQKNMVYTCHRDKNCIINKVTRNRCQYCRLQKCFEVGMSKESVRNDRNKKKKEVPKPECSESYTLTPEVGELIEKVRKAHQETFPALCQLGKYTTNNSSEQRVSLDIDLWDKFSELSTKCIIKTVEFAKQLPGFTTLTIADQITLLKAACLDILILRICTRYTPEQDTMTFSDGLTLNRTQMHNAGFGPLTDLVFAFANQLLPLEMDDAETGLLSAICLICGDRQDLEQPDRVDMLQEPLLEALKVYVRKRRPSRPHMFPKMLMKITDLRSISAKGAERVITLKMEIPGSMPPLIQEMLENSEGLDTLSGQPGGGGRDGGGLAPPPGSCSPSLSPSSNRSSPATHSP
Description: as §2, §4

[8] = percentage of maximum compared to standard TTNPB

For `Cc1cc2c(cc1C(/C=C/c1ccc(C(=O)O)cc1)=NO)C(C)(C)CCC2(C)C` [Compound 9a, E-4-[3-Hydroxyimino-3-(3,5,5,8,8-pentamethyl-5.6,7,8-tetrahydro-naphthalen-2-yl)-propenyl]-benzoic acid], the “selectivity to the RARγ receptors” value [1] was “less selective”.
For `Cc1cc2c(cc1C(/C=C\c1ccc(C(=O)O)cc1)=NO)C(C)(C)CCC2(C)C` [Compound 9b, Z4-[3-hydroxyimino-3-(3,5,5,8,8-pentamethyl-5,6,7,8-tetrahydro-naphthalen-2-yl)-propenyl]-benzoic acid], the “selectivity to the RARγ receptors” value [1] was “less selective”.
With `COc1cc2c(cc1C(/C=C/c1ccc(C(=O)O)cc1)=NO)C(C)(C)CCC2(C)C` [Compound 13a, E-4-[3-Hydroxyimino-3-(3-methoxy-5,5,8,8-tetramethyl-5,6,7,8-tetrahydro-naphthalen-2-yl)-propenyl]-benzoic acid] the “selectivity to the RARγ receptors” value [1] was “less selective”.
For `COc1cc2c(cc1C(/C=C\c1ccc(C(=O)O)cc1)=NO)C(C)(C)CCC2(C)C` [Compound 13b, Z-4-[3-hydroxyimino-3-(3-methoxy-5,5,8,8-tetramethyl-5,6,7,8-tetrahydro-naphthalen-2-yl)-propenyl]-benzoic acid], the “selectivity to the RARγ receptors” value [1] was “less selective”.
In the case of `Cc1cc2c(cc1C(C=Cc1ccc(C(=O)O)cc1)=NO)C(C)(C)CCC2(C)C` [drawing 37], the EC50 ([2]; chimeric receptor transactivation, read-out: RAR EC50 β) is reported as 157 nM, the “% Efficiency β” value [2, 8] is reported as 14% and the Ki [3] is reported as 28000 nM. For the same compound, the EC50 ([4]; chimeric receptor transactivation, read-out: RAR EC50 γ) was 35 nM, the “% Efficiency γ” value [4, 8] was 67% and the EC50 [5] was over 1000 nM. For the same compound, the Ki [6] was 1850 nM and the Ki [7] was 8000 nM.
